In US20150093451A1, “METHOD OF INCREASING ENERGY EXPENDITURE” (Reoxcyn Discoveries Group, Inc., priority 2007, published 2015):

Test system: NRF2
Assay: Western Blot validation of NRF2 nuclear accumulation and extra-nuclear protein phosphorylation
Format: cell-based, human
Procedure: 8. A Western Blot analysis was done on extra-nuclear and intra-nuclear fractions, separated by differential centrifugation, of serum starved HMVEC-L cell cultures exposed to <1% of a composition of the invention compared with a positive hydrogen peroxide control to determine phosphorylation events (oxidant action) in the extra-nuclear fraction and NRF2 (antioxidant transcription) in the intra-nuclear fraction at 0, 30, 60, 90 and 120 min intervals.
HMVEC-L were treated with 1% of a composition of the invention, nuclear extracts were separated through centrifugal differentiation from the extra-nuclear cytosol at 30, 60 and 120 min and subjected to Western Blot analysis for NRF2. In the Western blot experiment the extra-nuclear fraction was probed for phosphorylated proteins using a combination of anti-phospho serine, threonine and tyrosine antibodies. Virtually all cellular processes are regulated by posttranslational modifications and protein phosphorylation is a prevalent mechanism. Observable changes in protein phosphorylation can lead to a mechanistic understanding of the cellular processes perturbed by compositions of the invention and provide a defined endpoint to better define dose-dependent regulation of cell function by compositions of the invention in vitro, as well as provide a potential candidate molecular marker that may be used to provide in vitro-in vivo correlates. […]

OO [H2O2, Hydrogen peroxide]
phosphorylation of extra-nuclear protein (HMVEC-L extra-nuclear fraction, 1% composition, H2O2 positive control): marked increase in the phosphorylation
NRF2 levels in nuclear extracts (HMVEC-L, 1% ASEA 30, 60, 120 min, H2O2 30 min): did not increase nuclear NRF2 levels
